# Assays:
# Benzodiazepine Receptor = assay: Test on Binding to Benzodiazepine Receptor (inhibition of specific binding of tritium-labeled diazepam); parameters: species or system male Wistar rats (cerebral cortex); conditions: 2 nM tritium-labeled diazepam, 0° C., 60 minutes, rat cerebral cortex receptor preparation
# Experimental: Test on Binding to Benzodiazepine Receptor
# This test was carried out modifying partially a method of Mohler & Okada, Science, 198, 849-851 (1977). Receptor preparation was provided from the cerebral cortex of male Wistar rats (11-13 weeks age). Inhibitory action of the test compound on the specific binding of tritium-labeled diazepam to the receptor was evaluated as follows: 2 nM tritium-labeled diazepam and an aqueous solution of the test compound in 5 or 6 different concentrations were incubated with the receptor preparation at 0° C. for 60 minutes. The 50% inhibitory concentration (IC50) was measured by the concentration-response curve. In addition, the inhibitory constant (Ki) of the test compound was calculated by dissociation constant (Kd) and concentration (L) of the tritium-labeled diazepam.
# [1] = system: Pentylenetetrazole-Induced Convulsion; assay: Potentiation of Pentylenetetrazole-Induced Convulsion (inverse agonist activity); format: in vivo; conditions: Mus musculus; intravenous injection; pentylenetetrazole 90 mg/kg subcutaneous; 2-hour observation; male mice; probit method; read-out: ED50 (dose required to produce tonic convulsion and death in 50% of the animals)
# Experimental: Potentiation of Pentylenetetrazole-Induced Convulsion
# (§1) Inverse agonist activity was evaluated in this Experiment. Pentylenetetrazole was subscutaneously administered male mice (a group of 8-16 male mice was employed in each test) at a dose of 90 mg/kg immediately after intravenous injection of the test compound. The dose (ED50) required to produce tonic convulsion and death in 50% of the aminals during subsequent 2-hour observation period was calculated by the probit method.
# [2] = system: Pentylenetetrazole-Induced Convulsion; assay: Antagonism of Pentylenetetrazole-Induced Convulsion (agonistic activity); format: in vivo; conditions: Mus musculus; intravenous injection; pentylenetetrazole 125 mg/kg subcutaneous; 2-hour observation; male mice; probit method; read-out: ED50 (dose required to prevent tonic convulsion and death in 50% of the animals)
# Experimental: Anatagonism of Pentylenetetrazole-Induced Convulsion
# as §1, with “Agonistic” for “Inverse agonist”, “125” for “90”, “prevent” for “produce”, “animals” for “aminals”
# learning and memory [3] = conditions: M. Sarter et al., TINS 11, 13 (1988); cited from earlier work
# learning and memory [4] = conditions: M. Sarter et al., TINS 11, 13 (1988); cited from earlier work; remark: listed apart in the source
Structure (SMILES),Ki (Benzodiazepine Receptor) [nM],further results
"O=C(c1nc2cnc3ccccc3c2[nH]1)C1CC1 [Ic-1, 2-Cyclopropylcarbonyl-1H-imidazo[4,5-c]quinoline]",0.357,
CCC(=O)c1nc2cnc3ccccc3c2[nH]1 [Ic-4],0.409,
CCCC(=O)c1nc2cnc3ccccc3c2[nH]1 [Ic-6],0.432,ED50 [1]: 1 mg/kg
CCCCCCC(=O)c1nc2cnc3ccccc3c2[nH]1 [Ic-9],6.11,ED50 [2]: 3.21 mg/kg
CC(C)C(=O)c1nc2cnc3ccccc3c2[nH]1 [Ic-14],1.24,ED50 [1]: 0.2 mg/kg
CCC(C)C(=O)c1nc2cnc3ccccc3c2[nH]1 (stereo not shown) [Ic-18],3.6,
O=C(c1nc2cnc3ccc(F)cc3c2[nH]1)C1CC1 [Ic-21],0.5,
COc1ccc2c(c1)ncc1nc(C(=O)C3CC3)[nH]c12 [Ic-22],1.9,ED50 [1]: 0.15 mg/kg
C/C=C/C(=O)c1nc2cnc3ccccc3c2[nH]1 [Ic-27],13.1,ED50 [2]: 2.47 mg/kg
CSCCC(=O)c1nc2cnc3ccccc3c2[nH]1 [Ic-31],1.5,
"O=C(c1nc2cnc3ccccc3c2[nH]1)c1ccc(Cl)s1 [Ic-36, 2-[(5-Chlorothiophen-2-yl)carbonyl]-1H-imidazo[4,5-c]quinoline]",,ED50 [2]: 0.46 mg/kg
O=C(c1nc2cnc3ccccc3c2[nH]1)c1ccccc1F [Ic-37],2.21,
O=C(c1cccc(F)c1)c1nc2cnc3ccccc3c2[nH]1 [Ic-38],,ED50 [2]: 1.12 mg/kg
O=C(c1ccc(Cl)cc1)c1nc2cnc3ccccc3c2[nH]1 [Ic-41],8.33,
CSc1ccc(C(=O)c2nc3cnc4ccccc4c3[nH]2)cc1 [Ic-45],3.2,ED50 [2]: 0.88 mg/kg
O=C(c1cccnc1)c1nc2cnc3ccccc3c2[nH]1 [Ic-49],1.8,
O=C(c1nc2cnc3ccccc3c2[nH]1)c1cccs1 [Ic-50],0.819,
O=C(c1nc2cnc3ccccc3c2[nH]1)c1ccco1 [Ic-56],1.07,
Cc1cc(C(=O)c2nc3cnc4ccccc4c3[nH]2)no1 [Ic-60],0.373,ED50 [1]: 0.71 mg/kg
"CCOC(=O)c1nc2cnc3ccccc3c2[nH]1 [Ic-64, 2-Ethoxycarbonyl-1H-imidazo[4,5-c]quinoline]",,ED50 [1]: 0.31 mg/kg
CCNC(=O)c1nc2cnc3ccccc3c2[nH]1 [Ic-67],,ED50 [1]: 0.35 mg/kg
O=C(c1ccccc1)c1nc2cnc3ccccc3c2[nH]1 [Id-2],,ED50 [2]: 1.06 mg/kg
CN1C(=O)CN=C(c2ccccc2)c2cc(Cl)ccc21 [diazepam],,performance (learning and memory) in humans (learning and memory [3]): impairs such performance
COC(=O)c1cc2c(cn1)[nH]c1ccccc12 [methyl β-carbonline-3-carboxylate],,performance in several animal models of learning and memory (learning and memory [4]): enhances the performance

# Source: patent US4940714A, “2-substituted carbonylimidazo[4,5-c]quinolines” (Shionogi & Co., Ltd., priority 1988, dated 1990)
